Patent US20250101019A1 (Insilico Medicine IP Limited, priority 2022, published 2025)

Experiments:
ENPP1 [1] = target: T1, ENPP1 (Homo sapiens (Human), UniProt P22413); experiment: ATP-Glo enzymatic assay (ATP substrate, AMP-Glo readout); type: biochemical; conditions: 25° C. for 60 min, 50 mM Tris pH 8.8
Procedure: (§1) Example A: Enzymatic Assay
(§2) • 1. Diluted compounds in DMSO by hand for 11 points, 3 folds dilution. Then transferred 0.02 μL compounds to 384 assay plate by ECHO. • 2. Added 2 μL specified concentration of ENPP1 to 384 assay plate. Centrifuged 1000 RPM for 1 min. • 3. Added 2 μL specified concentration of ATP to the assay plate. Centrifuged 1000 RPM for 1 min. • 4. Incubated at 25° C. for 60 min. • 5. Added 4 μL AMP-Glo Reagent to the assay plates. • 6. Centrifuged 1000 RPM for 1 min, incubate at 25° C. for 1 hours. • 7. Added 8 μL Kinase Detection Reagent to the assay plates. • 8. Centrifuged 1000 RPM for 1 min, incubated at 25° C. for 1 hours. The final assay reaction mixture contained a buffer of 50 mM Tris pH 8.8, 250 mM NaCl and 0.1% BSA • 9. Read on Envision for US LUM as RLU. • 10. Analyzed the raw data using the equation (V. Data analysis). cGAMP-Glo Assay: • 1. Diluted compounds in DMSO by hand for 11 points, 3 folds dilution. Then transferred 0.02 μL compounds to 384 assay plate by ECHO. • 2. Added 2 μL specified concentration of ENPP1 to 384 assay plate, centrifuged 1000 RPM for 1 min. • 3. Added 2 μL specified concentration of 2′3′-cGAMP to the assay plate, centrifuged 1000 RPM for 1 min. • 4. Incubated at 25° C. for 60 min. • 5. Added 4 μL AMP-Glo Reagent to the assay plates. • 6. Centrifuged 1000 RPM for 1 min, incubated at 25° C. for 1 hours. • 7. Added 8 μL Kinase Detection Reagent to the assay plates. • 8. Centrifuged 1000 RPM for 1 min, incubate at 25° C. for 1 hours. The final assay reaction mixture contained a buffer of 50 mM Tris pH 8.8, 250 mM NaCl and 0.1% BSA • 9. Read on Envision for US LUM as RLU. • 10. Analyzed the raw data using the equation (V. Data analysis).

ENPP1 [2] = target: T1, ENPP1; experiment: cGAMP-Glo enzymatic assay (2′3′-cGAMP substrate, AMP-Glo readout); type: biochemical; conditions: substrate 2′3′-cGAMP; 25° C. for 60 min; 50 mM Tris pH 8.8
Procedure: as §1, §2

T1 sequence (P22413 whole entry, species assumed): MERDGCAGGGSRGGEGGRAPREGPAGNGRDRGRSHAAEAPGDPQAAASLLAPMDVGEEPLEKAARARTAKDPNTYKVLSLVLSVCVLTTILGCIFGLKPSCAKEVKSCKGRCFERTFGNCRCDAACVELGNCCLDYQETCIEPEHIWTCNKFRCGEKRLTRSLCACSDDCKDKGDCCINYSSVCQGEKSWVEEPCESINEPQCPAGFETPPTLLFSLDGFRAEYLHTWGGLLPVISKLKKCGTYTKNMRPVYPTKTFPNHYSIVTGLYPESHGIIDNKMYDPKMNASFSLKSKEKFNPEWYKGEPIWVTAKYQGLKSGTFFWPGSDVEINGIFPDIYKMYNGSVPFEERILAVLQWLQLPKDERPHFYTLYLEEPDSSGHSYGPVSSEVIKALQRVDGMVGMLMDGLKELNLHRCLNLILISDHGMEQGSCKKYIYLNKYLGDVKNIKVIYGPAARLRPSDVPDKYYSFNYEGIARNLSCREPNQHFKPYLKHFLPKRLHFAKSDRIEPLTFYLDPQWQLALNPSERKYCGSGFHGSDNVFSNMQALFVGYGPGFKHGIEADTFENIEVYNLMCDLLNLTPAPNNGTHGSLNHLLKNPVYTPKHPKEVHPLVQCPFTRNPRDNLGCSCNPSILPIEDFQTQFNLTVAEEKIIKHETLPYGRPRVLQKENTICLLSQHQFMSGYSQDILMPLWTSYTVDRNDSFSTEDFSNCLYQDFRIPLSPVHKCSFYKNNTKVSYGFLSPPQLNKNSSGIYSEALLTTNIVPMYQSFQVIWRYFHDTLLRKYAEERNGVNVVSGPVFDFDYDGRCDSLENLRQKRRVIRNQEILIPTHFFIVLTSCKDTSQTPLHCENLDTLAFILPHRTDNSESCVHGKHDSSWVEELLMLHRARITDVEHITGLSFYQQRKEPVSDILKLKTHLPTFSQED

Structure (SMILES)	IC50 (ENPP1 [1])	IC50 (ENPP1 [2])
COc1ncc2c(c1C1=CCCC1)n(Cc1c(F)cc(S(N)(=O)=O)cc1F)c(=O)n2C [Example 61, 4-((7-(cyclopent-1-en-1-yl)-6-methoxy-3-methyl-2-oxo-2,3-dihydro-1H-imidazo[4,5-c]pyridin-1-yl)methyl)-3,5-difluorobenzenesulfonamide]	< 1 nM	< 1 nM
Cc1ncc2c(c1C1=CCCC1)n(Cc1c(F)cc(S(N)(=O)=O)cc1F)c(=O)n2C [Example 62, 4-((7-(cyclopent-1-en-1-yl)-3,6-dimethyl-2-oxo-2,3-dihydro-1H-imidazo[4,5-c]pyridin-1-yl)methyl)-3,5-difluorobenzenesulfonamide]	< 1 nM	< 1 nM
Cc1ncc2nc(C)n(Cc3c(F)cc(S(N)(=O)=O)cc3F)c2c1C [Example 63, 3,5-difluoro-4-((2,6,7-trimethyl-1H-imidazo[4,5-c]pyridin-1-yl)methyl)benzenesulfonamide]	< 1 nM	< 1 nM
CC#Cc1c(C)ncc2nc(C)n(Cc3c(F)cc(S(N)(=O)=O)cc3F)c12 [Example 64, 4-((2,6-dimethyl-7-(prop-1-yn-1-yl)-1H-imidazo[4,5-c]pyridin-1-yl)methyl)-3,5-difluorobenzenesulfonamide]	< 1 nM	< 1 nM
Cc1ncc2nc(C)n(Cc3ccc(S(N)(=O)=O)cn3)c2c1-c1ccccc1 [Example 65, 6-((2,6-dimethyl-7-phenyl-1H-imidazo[4,5-c]pyridin-1-yl)methyl)pyridine-3-sulfonamide]	< 1 nM	< 1 nM
Cc1ncc2nc(C)n(Cc3ccc(S(N)(=O)=O)nc3)c2c1-c1ccccc1 [Example 66, 5-((2,6-dimethyl-7-phenyl-1H-imidazo[4,5-c]pyridin-1-yl)methyl)pyridine-2-sulfonamide]	< 1 nM	< 1 nM
Cc1ncc2nc(C(F)(F)F)n(Cc3ccc(S(N)(=O)=O)cn3)c2c1-c1ccccc1 [Example 67, 6-((6-methyl-7-phenyl-2-(trifluoromethyl)-1H-imidazo[4,5-c]pyridin-1-yl)methyl)pyridine-3-sulfonamide]	< 1 nM	< 1 nM
Cc1ncc2nc(C)n(Cc3ncc(S(N)(=O)=O)cc3F)c2c1-c1ccccc1 [Example 68, 6-((2,6-dimethyl-7-phenyl-1H-imidazo[4,5-c]pyridin-1-yl)methyl)-5-fluoropyridine-3-sulfonamide]	< 1 nM	< 1 nM
Cc1ncc2nc(C(F)(F)F)n(Cc3ncc(S(N)(=O)=O)cc3F)c2c1-c1ccccc1 [Example 69, 5-fluoro-6-((6-methyl-7-phenyl-2-(trifluoromethyl)-1H-imidazo[4,5-c]pyridin-1-yl)methyl)pyridine-3-sulfonamide]	< 1 nM	< 1 nM
Cc1ncc2nc(C3CC3)n(Cc3ncc(S(N)(=O)=O)cc3F)c2c1-c1ccccc1 [Example 70, 6-((2-cyclopropyl-6-methyl-7-phenyl-1H-imidazo[4,5-c]pyridin-1-yl)methyl)-5-fluoropyridine-3-sulfonamide]	< 1 nM	< 1 nM
Cc1ncc2nc(C(F)F)n(Cc3ccc(S(N)(=O)=O)cn3)c2c1-c1ccccc1 [Example 71]	< 1 nM	< 1 nM
Cc1ncc2nc(C(F)F)n(Cc3ncc(S(N)(=O)=O)cc3F)c2c1-c1ccccc1 [Example 72, 6-((2-(difluoromethyl)-6-methyl-7-phenyl-1H-imidazo[4,5-c]pyridin-1-yl)methyl)-5-fluoropyridine-3-sulfonamide]	< 1 nM	< 1 nM
COc1ncc2nc(C)n(Cc3ncc(S(N)(=O)=O)cc3F)c2c1-c1ccccc1 [Example 73, 5-fluoro-6-((6-methoxy-2-methyl-7-phenyl-1H-imidazo[4,5-c]pyridin-1-yl)methyl)pyridine-3-sulfonamide]	< 1 nM	< 1 nM
COc1ncc2nc(C)n(Cc3ccc(S(N)(=O)=O)cn3)c2c1-c1ccccc1 [Example 74, 6-((6-methoxy-2-methyl-7-phenyl-1H-imidazo[4,5-c]pyridin-1-yl)methyl)pyridine-3-sulfonamide]	< 1 nM	< 1 nM
COc1ncc2nc(C(F)F)n(Cc3ccc(S(N)(=O)=O)cn3)c2c1-c1ccccc1 [Example 75, 6-((2-(difluoromethyl)-6-methoxy-7-phenyl-1H-imidazo[4,5-c]pyridin-1-yl)methyl)pyridine-3-sulfonamide]	< 1 nM	< 1 nM
COc1ncc2nc(C(F)F)n(Cc3ncc(S(N)(=O)=O)cc3F)c2c1-c1ccccc1 [Example 76, 6-((2-(difluoromethyl)-6-methoxy-7-phenyl-1H-imidazo[4,5-c]pyridin-1-yl)methyl)-5-fluoropyridine-3-sulfonamide]	< 1 nM	< 1 nM
COc1ncc2nc(C(F)(F)F)n(Cc3ccc(S(N)(=O)=O)cn3)c2c1-c1ccccc1 [Example 77]	< 1 nM	< 1 nM
COc1ncc2nc(C(F)(F)F)n(Cc3ncc(S(N)(=O)=O)cc3F)c2c1-c1ccccc1 [Example 78, 5-fluoro-6-((6-methoxy-7-phenyl-2-(trifluoromethyl)-1H-imidazo[4,5-c]pyridin-1-yl)methyl)pyridine-3-sulfonamide]	< 1 nM	< 1 nM
Cc1ncc2c(c1-c1ccccc1)n(Cc1ncc(S(N)(=O)=O)cc1F)c(=O)n2C [Example 79, 6-((3,6-dimethyl-2-oxo-7-phenyl-2,3-dihydro-1H-imidazo[4,5-c]pyridin-1-yl)methyl)-5-fluoropyridine-3-sulfonamide]	< 1 nM	< 1 nM
COc1ncc2c(c1-c1ccccc1)n(Cc1ncc(S(N)(=O)=O)cc1F)c(=O)n2C [Example 80, 5-fluoro-6-((6-methoxy-3-methyl-2-oxo-7-phenyl-2,3-dihydro-1H-imidazo[4,5-c]pyridin-1-yl)methyl)pyridine-3-sulfonamide]	< 1 nM	< 1 nM
Cc1ncc2c(c1-c1ccccc1)n(Cc1ccc(S(N)(=O)=O)cn1)c(=O)n2C [Example 81, 6-((3,6-dimethyl-2-oxo-7-phenyl-2,3-dihydro-1H-imidazo[4,5-c]pyridin-1-yl)methyl)pyridine-3-sulfonamide]	< 1 nM	< 1 nM
COc1ncc2c(c1-c1ccccc1)n(Cc1ccc(S(N)(=O)=O)cn1)c(=O)n2C [Example 82, 6-((6-methoxy-3-methyl-2-oxo-7-phenyl-2,3-dihydro-1H-imidazo[4,5-c]pyridin-1-yl)methyl)pyridine-3-sulfonamide]	< 1 nM	< 1 nM
[2H]C([2H])([2H])Oc1ncc2nc(C)n(Cc3ccc(S(N)(=O)=O)cc3)c2c1-c1ccccc1 [Example 84, 4-((6-(methoxy-d3)-2-methyl-7-phenyl-1H-imidazo[4,5-c]pyridin-1-yl)methyl)benzenesulfonamide]	< 1 nM	< 1 nM
[2H]C([2H])([2H])Oc1ncc2nc(C)n(Cc3ncc(S(N)(=O)=O)cc3F)c2c1-c1ccccc1 [Example 85, 5-fluoro-6-((6-(methoxy-d3)-2-methyl-7-phenyl-1H-imidazo[4,5-c]pyridin-1-yl)methyl)pyridine-3-sulfonamide]	< 1 nM	< 1 nM
[2H]C([2H])([2H])Oc1ncc2nc(C(F)F)n(Cc3ncc(S(N)(=O)=O)cc3F)c2c1-c1ccccc1 [Example 86, 6-((2-(difluoromethyl)-6-(methoxy-d3)-7-phenyl-1H-imidazo[4,5-c]pyridin-1-yl)methyl)-5-fluoropyridine-3-sulfonamide]	< 1 nM	< 1 nM
